Source: patent US6995262B1, “Use of acylsulfonamido-substituted polymethine dyes as fluorescene dyes and/or markers” (Bayer CropScience AG, priority 1999, dated 2006)
Marks after values point to notes of the source that are not given here.

Legend:
Format in all cases: physicochemical
[1] = Aggregate formation: ratio of absorption maxima of monomer and aggregate at increasing salt concentration; settings: for characteristics with respect to aggregate formation: with increasing salt concentration
From the text: The intensity of the absorption in the absorption maximum of the monomer is a relative measure for the concentration of the monomer in the solution, the same also applies to the concentration of the aggregate, this can be correlated to the intensity of the absorption in the absorption maximum of the aggregate, which is shifted hypsochronically compared to the monomer. […] The increasing salt concentration causes an aggregate formation.

[2] = Photostability: dye solutions exposed to daylight, reduction of absorption over time; settings: after 30 min, starting absorption 1.4 to 1.6 O.D.
Experimental: The photostability was determined by exposing dye solutions to daylight. The absorption of the solutions varied between 1.4 and 1.6 O.D. The reduction of the absorption over time is a measure for the photostability of the dyes. These conditions were chosen since the handling of the dyes, too, includes manual process steps during which the dyes are exposed to daylight. In the case of CY5, it is clearly noticeable that, even after 30 min, the absorption has decreased by 12%. This is not the case for the dyes according to the invention, and the latter are thus also more user-friendly, by maintaining a stable absorption.

[3] = Extinction coefficient determined assuming Beer's law; settings: Beer's law assumed
Experimental: Determination of the Extinction Coefficient The extinction coefficient was determined assuming that Beer's law applies.

[4] = Relative quantum yield of dye-protein conjugates, determined relative to Cy5; settings: protein conjugates at similar molar dye/protein ratios, protein HSA
Experimental: The protein used was HSA (Human Serum Albumin).
Determination of the Quantum Yield
The quantum yield was determined relative to Cy5
For labeling, the crude product (1 aliquot) is dissolved in 1 ml of DMF. 50 μl of this solution are pipetted to 1.5 mL (=1 mg) of anti-HSA solution in carbonate buffer pH 9.2. The reaction solution is stirred at RT under the exclusion of light for 2 hours.
Using gel permeation chromatography over a Sephadex G25 column, the conjugate is then separated from unbound dye. The elution buffer used is PBS, pH 7.4.
Protein conjugates of other dyes, which are listed in Table 1, were prepared in an analogous manner.

Row | Structure (SMILES) | Absorption monomer/absorption dimer ([1]; 2.0 M NaCl) | Absorption monomer/absorption dimer ([1]; 3.8 M NaCl) | Absorption monomer/absorption dimer ([1]; Water) | decrease of absorption [2] | characteristics with respect to aggregate formation ([1]; in words) | Extinction coefficient [3] | rel. Q.Y. [4] | aggregate formation compared to CY5 ([1]; in words, from Table 2)
1 | CCN1/C(=C/C=C/C=C/C2=[N+](CCCCCC(=O)O)c3ccc(S(=O)(=O)O)cc3C2(C)C)C(C)(C)c2cc(S(=O)(=O)[O-])ccc21 [CY5, reference compound] | 3.18 | 3.19 | 3.12 | 12% | – | – | – | –
2 | CC1(C)C(/C=C2\C(=O)C(/C=C3/N(CCCCCC(=O)O)c4ccccc4C3(C)C)=C2O)=[N+](CC(=O)NS(C)(=O)=O)c2ccc(S(=O)(=O)[O-])cc21 [F] | 2.81 | 2.81 | 2.89 | – | stable characteristics | 420 000 mol-1*cm^2* | 1.35 | –
3 | CC1(C)C(/C=C2\C(=O)C(/C=C3/N(CCCCCC(=O)O)c4ccc(S(=O)(=O)[O-])cc4C3(C)C)=C2O)=[N+](CC(=O)NS(C)(=O)=O)c2ccc(S(=O)(=O)O)cc21 [J] | 4.35 | 4.40 | 4.40 | – | stable characteristics | 240 000 mol-1*cm^2* | 1.36 | considerably lower aggregate formation
